From ChEMBL document CHEMBL1139353, “Discovery of a new class of potential multifunctional atypical antipsychotic agents targeting dopamine D3 and serotonin 5-HT1A and 5-HT2A receptors: design, synthesis, and effects on behavior” (J Med Chem, 2009)
The source made the active and inactive calls. The calls are words filed in the database; no cut-off is given here.

Experiments:
[1] = molecular target: D(3) dopamine receptor (Homo sapiens, UniProt P35462); test: biochemical
Description: Displacement of [3H]7OH-DPAT from dopamine D3 receptor expressed in Sf9 cells by scintillation spectrometry

[2] = tested on: Mus musculus; test: Antipsychotic activity in NMRI mouse assessed as reduction in methamphetamine-induced locomotor activity at 3 mg/kg administered 30 mins prior to testing measured for 60 mins relative to control; assay type: functional, organism-based; design: dose 3 mg/kg
[3] = molecular target: T1, Adrenergic receptor alpha-1 (Rattus norvegicus, UniProt P15823+P23944+P43140); test: Displacement of [3H]prazosin from adrenergic alpha1 receptor in rat cerebral cortex by liquid scintillation counting; assay type: tissue-based
T1 sequence (P15823 whole entry): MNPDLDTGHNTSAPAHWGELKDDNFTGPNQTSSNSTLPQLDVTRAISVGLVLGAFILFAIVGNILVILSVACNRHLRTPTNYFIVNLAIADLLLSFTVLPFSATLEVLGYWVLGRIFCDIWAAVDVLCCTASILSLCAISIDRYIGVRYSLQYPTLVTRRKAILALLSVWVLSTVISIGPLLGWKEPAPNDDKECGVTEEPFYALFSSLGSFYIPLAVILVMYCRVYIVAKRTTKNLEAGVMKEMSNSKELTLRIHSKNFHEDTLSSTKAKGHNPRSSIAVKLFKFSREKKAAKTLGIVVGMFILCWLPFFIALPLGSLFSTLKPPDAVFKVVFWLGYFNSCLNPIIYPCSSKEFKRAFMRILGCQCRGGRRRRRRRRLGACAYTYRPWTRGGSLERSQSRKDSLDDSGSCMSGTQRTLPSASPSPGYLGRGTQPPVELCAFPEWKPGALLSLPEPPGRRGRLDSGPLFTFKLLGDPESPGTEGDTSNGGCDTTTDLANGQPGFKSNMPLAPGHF
T1 sequence (P23944 whole entry): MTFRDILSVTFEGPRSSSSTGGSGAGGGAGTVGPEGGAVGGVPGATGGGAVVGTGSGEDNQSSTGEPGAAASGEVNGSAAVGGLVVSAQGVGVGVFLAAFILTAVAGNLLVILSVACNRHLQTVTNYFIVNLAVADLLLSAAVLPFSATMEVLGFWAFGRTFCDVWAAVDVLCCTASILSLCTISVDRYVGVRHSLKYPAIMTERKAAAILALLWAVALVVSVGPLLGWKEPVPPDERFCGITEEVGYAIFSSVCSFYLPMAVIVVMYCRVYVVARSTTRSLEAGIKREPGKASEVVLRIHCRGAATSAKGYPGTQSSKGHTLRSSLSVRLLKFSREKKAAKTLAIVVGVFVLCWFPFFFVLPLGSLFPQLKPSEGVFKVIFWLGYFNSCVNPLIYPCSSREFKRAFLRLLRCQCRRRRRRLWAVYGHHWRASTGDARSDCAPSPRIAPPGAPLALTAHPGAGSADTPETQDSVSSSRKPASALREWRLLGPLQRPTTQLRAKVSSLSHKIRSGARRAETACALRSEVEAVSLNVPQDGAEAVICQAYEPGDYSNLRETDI
T1 sequence (P43140 whole entry): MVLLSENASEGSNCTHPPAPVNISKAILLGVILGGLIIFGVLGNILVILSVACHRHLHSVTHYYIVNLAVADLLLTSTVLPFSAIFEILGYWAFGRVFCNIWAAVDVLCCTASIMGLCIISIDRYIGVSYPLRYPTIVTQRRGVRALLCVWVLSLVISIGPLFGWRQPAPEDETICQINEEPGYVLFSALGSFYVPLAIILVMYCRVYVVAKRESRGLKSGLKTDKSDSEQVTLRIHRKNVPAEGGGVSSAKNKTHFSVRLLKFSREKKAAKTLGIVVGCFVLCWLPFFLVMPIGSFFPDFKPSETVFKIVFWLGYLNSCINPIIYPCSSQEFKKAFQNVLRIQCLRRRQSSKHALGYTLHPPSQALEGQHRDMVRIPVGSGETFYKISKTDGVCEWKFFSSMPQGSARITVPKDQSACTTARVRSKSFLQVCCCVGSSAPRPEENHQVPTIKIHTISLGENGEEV

[4] = tested on: Mus musculus; test: Sedative activity in NMRI mouse assessed as reduction in spontaneous locomotor activity at 10 mg/kg administered 30 mins prior to testing relative to control; assay type: organism-based; design: dose 10 mg/kg; conditions: in vivo, 0.5 h
[5] = tested on: Rattus norvegicus; test: Induction of c-Fos protein expression in ip dosed rat dorsolateral striatum after 1 hr by light microscopy; assay type: functional, organism-based
[6] = species: Mus musculus; conditions: in vivo, 0.5 h
Description: Sedative activity in NMRI mouse assessed as reduction in spontaneous locomotor activity administered 30 mins prior to testing

[7] = molecular target: 5-hydroxytryptamine receptor 2A (Rattus norvegicus, UniProt P14842)
Description: Displacement of [3H]ketanserin from 5HT2A receptor in CRL:CD(SD)BR-COBS rat cortex by scintillation spectrometry

[8] = Intrinsic activity at 5HT1A receptor in Duncan Hartley guinea pig ileum; assay type: tissue-based; conditions: Cavia porcellus
[9] = tested on: Mus musculus; conditions: NMRI
Description: Antipsychotic activity in NMRI mouse assessed as reduction in phencyclidine-induced locomotor activity administered 30 mins prior to testing measured for 60 mins

Chain of D(3) dopamine receptor (P35462 whole entry): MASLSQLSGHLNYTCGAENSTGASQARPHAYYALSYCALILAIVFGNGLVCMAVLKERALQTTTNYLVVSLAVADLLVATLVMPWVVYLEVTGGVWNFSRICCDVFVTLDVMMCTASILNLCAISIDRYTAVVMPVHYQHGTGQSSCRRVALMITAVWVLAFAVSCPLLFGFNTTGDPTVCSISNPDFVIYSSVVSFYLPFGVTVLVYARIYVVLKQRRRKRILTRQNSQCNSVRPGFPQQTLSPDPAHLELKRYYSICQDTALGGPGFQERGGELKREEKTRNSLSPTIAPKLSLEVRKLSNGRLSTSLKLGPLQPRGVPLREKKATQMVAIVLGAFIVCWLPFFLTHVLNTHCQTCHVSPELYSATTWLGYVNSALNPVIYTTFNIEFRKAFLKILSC
Chain of 5-hydroxytryptamine receptor 2A (P14842 whole entry): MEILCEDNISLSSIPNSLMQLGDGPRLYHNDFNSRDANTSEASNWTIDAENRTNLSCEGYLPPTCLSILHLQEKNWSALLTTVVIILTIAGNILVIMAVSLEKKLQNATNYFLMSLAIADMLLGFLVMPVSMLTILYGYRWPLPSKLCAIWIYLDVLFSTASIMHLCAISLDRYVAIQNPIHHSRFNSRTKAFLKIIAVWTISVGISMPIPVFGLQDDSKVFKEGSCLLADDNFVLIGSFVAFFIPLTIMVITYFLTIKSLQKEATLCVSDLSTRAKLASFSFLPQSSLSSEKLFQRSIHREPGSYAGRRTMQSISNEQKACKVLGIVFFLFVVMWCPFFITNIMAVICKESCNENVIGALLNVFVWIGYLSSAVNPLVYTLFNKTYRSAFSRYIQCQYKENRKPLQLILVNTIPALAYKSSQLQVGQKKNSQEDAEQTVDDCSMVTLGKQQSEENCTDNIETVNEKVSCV

In the case of `Cc1cccc(N2CCN(CCCCNC(=O)c3cc4ccccc4o3)CC2)c1`, the Ki [1] is reported as 4.5 nM, the Activity [2] is reported as “Active” and the Ki [3] is reported as 6 nM. The Activity [4] was “Toxic”, the Activity [5] was “Dose-dependent effect” and the ED50 [6] was 5.5 mg/kg. For the same compound, the Ki [7] was 15.3 nM, the IC50 [8] was 180 nM and the Activity [9] was “Dose-dependent effect”.
